Experimental data published in ChEMBL document CHEMBL1128782, “Nucleosides and nucleotides. 142. an alternative synthesis of and its antiviral activity” (Bioorg Med Chem Lett, 1995).
Values after ≈ are worked out from the molar mass of the structure shown.

Assays:
Influenza B virus [1] = test: Effective dose required to reduce virus induced cytopathogenicity by Influenza B (Fu 207) was determined; type: functional, organism-based
[2] = test system: Vesicular stomatitis virus; test: Effective dose required for plaque reduction in vesicular stomatitis virus (VSV) was determined; type: functional, organism-based
Human betaherpesvirus 5 = test: Effective dose required for plaque reduction in human cytomegalovirus (HCMV) was determined; type: functional, organism-based
Influenza A virus = test: Effective dose required to reduce virus induced cytopathogenicity by Influenza A(H1N1,Fu 88) was determined; type: functional, organism-based
[3] = Evaluated for time-dependent and irreversible inhibitor of bovine S-adenosyl-L-homocysteine; design: species or system Bos taurus
Influenza B virus [4] = test: Effective dose required to reduce virus induced cytopathogenicity by Influenza B(singapore) was determined; type: functional, organism-based
Influenza B virus [5] = test: Effective dose required to reduce virus induced cytopathogenicity by Influenza B(Fu 207) was determined; type: functional, organism-based

Row | SMILES | EC50 (Influenza B virus [1]) [µg/mL] | EC50 [2] [µg/mL] | EC50 (Human betaherpesvirus 5) [µg/mL] | EC50 (Influenza A virus) [µg/mL] | Ki [3] [nM] | EC50 (Influenza B virus [4]) [µg/mL] | EC50 (Influenza B virus [5]) [µg/mL]
1 | Nc1ncnc2c1ncn2C1O[C@H](C=C(Br)Br)[C@@H](O)[C@H]1O (some centres not stated) | 32 (≈ 76 µM) | > 10 | > 10 |  |  |  | 
2 | C#C[C@H]1OC(n2cnc3c(N)ncnc32)[C@H](O)[C@@H]1O (some centres not stated) |  | 0.14 (≈ 0.536 µM) | 8.2 (≈ 31.4 µM) | 0.38 (≈ 1.45 µM) | 173 | 0.9 (≈ 3.45 µM) | 1.8 (≈ 6.89 µM)
3 | N#C[C@H]1OC(n2cnc3c(N)ncnc32)[C@H](O)[C@@H]1O (some centres not stated) |  | 1.2 (≈ 4.58 µM) | 1.4 (≈ 5.34 µM) |  |  |  | 10 (≈ 38.1 µM)
4 | NC(=O)c1ncn([C@@H]2O[C@H](CO)[C@@H](O)[C@H]2O)n1 [RIBAVIRIN] |  | > 10 | > 10 | 19.6 (≈ 80.3 µM) |  | 6.7 (≈ 27.4 µM) | 36.9 (≈ 151 µM)
5 | Nc1ncnc2c1ncn2[C@@H]1C=C(CO)[C@@H](O)[C@H]1O [NEOPLANOCIN A] |  | 0.38 (≈ 1.44 µM) | 0.2 (≈ 0.76 µM) | > 20 |  | > 20 | > 20
